Measurements published in PMC8058733, “A pain killer without analgesic tolerance designed by co-targeting PSD-95-nNOS interaction and α2-containning GABAARs” (Theranostics, 2021).

Key:
spatial memory = assay: Morris water maze task; type: in vivo; conditions: rats; ZL006-05 90 mg/kg/d, i.g.; MK801 0.25 mg/kg/d, i.v.; 6 days
Experimental: The Morris water maze task was used to exam spatial cognitive performance of rats. A circular swimming pool (Jiliang Neuroscience Inc.) measuring 180 cm in diameter and 48 cm in height was filled with water to a depth of 26 cm at 24 ± 2 °C. Four starting points around the edge of the pool were designated as N, E, S, and W, which divided the pool into four quadrants. A platform, 10 cm in diameter, was located in a constant position in the middle of one quadrant. To render it invisible to the rats, platform was submerged 2.0 cm below the surface of the water. The task for the rats was to escape from the water by locating the hidden platform. Two days before training, the animals were habituated to swimming for 60 s in the pool without a platform. In training session, rats were trained to escape from the water by locating the platform which was above the water with a red flag on it. Then, one block of four trails was given for 6 consecutive days, and on each day, two groups of rats were administrated with MK801 (0.25 mg/kg, i.v.) or vehicle (6 mL/kg, i.v.) 30 minutes before the first trail. Meanwhile, another two groups of rats were treated with ZL006-05 (90 mg/kg, i.g.) or vehicle (6 mL/kg, i.g.) 1 hour before the first trail. […] During retention, the number of crossings of the platform location and the time spent in the target quadrant were measured.

PSD-95-nNOS complex = target: T1, PSD-95-nNOS complex (Rattus norvegicus, UniProt P29476); assay: Co-IP of PSD-95-nNOS complex levels in the spinal dorsal horn after SNL; type: in vivo; conditions: SNL rats treated by ZL006-05
T1 construct: dorsal spinal cord tissues (L4 and L5) were lysed in 400 μl RIPA; from tissue; host or cells: rat dorsal spinal cord (L4 and L5), SNL model
T1 sequence (P29476 whole entry, one chain of several): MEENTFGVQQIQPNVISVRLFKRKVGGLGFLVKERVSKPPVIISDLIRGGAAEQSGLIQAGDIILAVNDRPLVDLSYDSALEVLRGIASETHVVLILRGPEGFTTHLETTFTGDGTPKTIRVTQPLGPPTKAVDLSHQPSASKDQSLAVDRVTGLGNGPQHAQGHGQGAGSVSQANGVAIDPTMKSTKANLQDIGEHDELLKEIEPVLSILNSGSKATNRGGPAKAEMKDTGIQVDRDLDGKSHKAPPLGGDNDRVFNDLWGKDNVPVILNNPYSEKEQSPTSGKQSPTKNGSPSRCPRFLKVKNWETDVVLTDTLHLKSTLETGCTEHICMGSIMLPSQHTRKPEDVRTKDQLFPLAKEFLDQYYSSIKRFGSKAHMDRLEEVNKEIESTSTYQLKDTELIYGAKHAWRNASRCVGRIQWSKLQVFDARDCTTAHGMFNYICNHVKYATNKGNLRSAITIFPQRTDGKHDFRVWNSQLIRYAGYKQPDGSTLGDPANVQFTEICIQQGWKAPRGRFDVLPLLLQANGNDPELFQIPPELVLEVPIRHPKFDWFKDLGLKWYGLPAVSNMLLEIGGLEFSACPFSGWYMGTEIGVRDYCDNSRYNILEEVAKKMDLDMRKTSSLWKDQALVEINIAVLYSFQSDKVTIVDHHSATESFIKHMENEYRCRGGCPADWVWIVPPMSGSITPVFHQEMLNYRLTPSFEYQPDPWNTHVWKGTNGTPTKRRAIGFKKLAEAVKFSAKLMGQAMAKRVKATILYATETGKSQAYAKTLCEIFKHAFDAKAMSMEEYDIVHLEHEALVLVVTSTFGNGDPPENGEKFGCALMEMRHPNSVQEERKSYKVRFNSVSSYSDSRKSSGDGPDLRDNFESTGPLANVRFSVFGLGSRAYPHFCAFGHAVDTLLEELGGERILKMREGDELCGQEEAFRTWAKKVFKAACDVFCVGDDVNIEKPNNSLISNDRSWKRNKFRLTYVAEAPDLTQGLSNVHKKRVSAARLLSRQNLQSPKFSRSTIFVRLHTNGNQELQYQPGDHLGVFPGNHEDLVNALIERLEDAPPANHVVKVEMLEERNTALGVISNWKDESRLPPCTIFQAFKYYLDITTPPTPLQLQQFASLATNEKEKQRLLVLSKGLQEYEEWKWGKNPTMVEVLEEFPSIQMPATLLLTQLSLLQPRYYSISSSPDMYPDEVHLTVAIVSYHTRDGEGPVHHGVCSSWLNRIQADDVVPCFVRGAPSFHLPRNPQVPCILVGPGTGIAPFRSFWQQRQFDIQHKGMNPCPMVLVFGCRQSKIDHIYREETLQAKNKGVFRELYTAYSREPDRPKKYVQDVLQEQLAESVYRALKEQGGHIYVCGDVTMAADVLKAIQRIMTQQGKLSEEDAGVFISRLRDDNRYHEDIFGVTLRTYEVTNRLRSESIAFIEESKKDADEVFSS

[1] = tested on: basic pain threshold under normal conditions; assay: Mechanical nociceptive thresholds in normal rats; type: in vivo, rat; conditions: ZL006-05 90 mg/kg/d, i.g., × 11 d, 2 h after administration
Experimental: For rats, the threshold for 50% paw withdrawal (50% PWT) response to mechanical stimulus was assessed through a dynamic plantar apparatus (Ugo Basile, Italy). The 50% PWT refers to that the probability of paw withdrawal response to repeated mechanical stimulus is 50%. Rats were placed individually in a plastic cage (17 × 15 × 15 cm) with a wire mesh bottom which allowed full access to the paws. Behavioral accommodation was allowed for 15-20 min until cage exploration and major grooming activities ceased. A maximal cut-off of 50g/50s was set to prevent tissue damage. To record the PWT in response to mechanical stimulus, each rat was measured five times with a 5-min interval, and the mean value was recorded after excluding maximal and minimum values. The experimental procedures were performed in a double-blind manner.

[2] = tested on: CFA-induced inflammatory pain; assay: CFA-induced inflammatory pain, paw withdrawal threshold; type: in vivo; conditions: mice, ZL006-05 60 mg/kg, i.g., given 24 h after CFA injection
Experimental: For mice, the threshold for 50% PWT response to mechanical stimulus was quantified by assessing the paw withdrawal threshold using von Frey filaments (Touch-Test TM Sensory Evaluator, North coast Medical, Inc.). Mice were placed individually in a plastic cage (4.5 × 5 × 11 cm) with a wire mesh bottom which allowed full access to the paws. Behavioral accommodation was allowed for 20-30 min until cage exploration and major grooming activities ceased. Mechanical threshold was measured by applying a von Frey filament to the ventral surface of the right hind paw until a positive sign of pain behavior was elicited. The paradigm for assessing the threshold was as follows. Von Frey filaments with logarithmically incremental stiffness (0.02-2 g) were applied serially to the paw by the up-down method. […]
(A) Time course of SNL-induced thermal hyperalgesia after treating with ZL006-05 (60 mg/kg, i.g.) in mice. Paw withdrawal latency response to thermal stimulation was detected at 0, 1, 2, 4, 6, 8, 10, 12 and 24 h after drug administration. ( B) Areas under the curve of paw withdrawal latency 0-24 h after treatment calculated from ( A) (F (1,16) = 43.07, ***p < 0.001, two-tailed t-test, n = 9). […] (E) Areas under the curve of paw withdrawal latency 0-24 h after treatment calculated from (D) (F (1,18) = 71.73, ***p <0.001, two-tailed t-test, n = 10). […]

SMILES: CC1(C)C2CCC1(C)C(OC(=O)c1ccc(NCc3cc(Cl)cc(Cl)c3O)cc1O)C2 (stereo not shown) [ZL006-05]
- Spatial memory in the Morris water maze task (spatial memory): but not ZL006-05 caused significantly impaired spatial memory
- PSD-95-nNOS complex level in the SDH (PSD-95-nNOS complex): abolished the SNL-induced increase in PSD-95-nNOS complex in the SDH
- Basic mechanical nociceptive threshold [1]: did not change the basic threshold
- Effect on CFA-induced inflammatory pain [2]: reduced
